Measured values reported in PubChem BioAssay AID1322 (NMMLSC, 2008).
Activity calls are given as the source filed them. The rule behind the calls is not given here.

Molecular target: Bcl-2-like protein 1 (Homo sapiens) (UniProt Q07817)
Assay: Bcl-XL binding to Bim peptide disruption – biochemical, multiplexed, bead flow cytometry, human Bcl-XL, dose response (AID 1322); for inhibition: test concentration not given here
Conditions: Bead-based flow cytometry, MCF; for inhibition: active compounds read high

Chain of Bcl-2-like protein 1 (Homo sapiens) (Q07817 whole entry, looked up): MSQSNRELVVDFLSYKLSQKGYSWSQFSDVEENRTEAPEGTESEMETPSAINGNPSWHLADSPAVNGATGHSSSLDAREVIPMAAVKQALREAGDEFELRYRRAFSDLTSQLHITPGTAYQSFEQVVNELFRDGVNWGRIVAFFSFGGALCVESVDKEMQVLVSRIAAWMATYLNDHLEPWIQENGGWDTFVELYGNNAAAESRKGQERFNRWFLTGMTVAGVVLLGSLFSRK

Row | inhibition | outcome | SMILES
1 | inactive |  | COc1cc(N=c2ssnc2Cl)c(OC)cc1Cl
2 | inactive |  | Nc1ccccc1N=c1ssnc1Cl
3 | inactive |  | CC(C)COC(=O)/C(C#N)=C/c1cn(Cc2ccccc2)c2ccccc12
4 | inactive |  | CC1(C)CC(NC(=O)COc2ccc([N+](=O)[O-])cc2)CC(C)(C)N1
5 | inactive |  | COc1ccc2cc(CN(CCc3ccccc3)Cc3nnnn3CC3CCCO3)c(=O)[nH]c2c1 (stereo unspecified)
6 | inactive |  | CCOC(=O)c1cccc(Nc2ncnc3ccccc23)c1
7 | inactive |  | Cc1cccc(/C=N/N(CCO)C2=NS(=O)(=O)c3ccccc32)c1
8 | inactive |  | CC1Cc2ccccc2N1C(=O)CSc1nnnn1-c1ccc2c(c1)OCCO2 (stereo unspecified)
9 | inactive |  | CC(=O)OCCCNc1cc(Sc2nc3ccccc3s2)c2nonc2c1[N+](=O)[O-]
10 | inactive |  | CCN(CC)c1ccc(NC(=O)COc2ccccc2C)cc1S(=O)(=O)Nc1ccccc1OC
11 | inactive |  | Cc1ccc2cc(C)c(Sc3nnnn3-c3ccccc3)nc2c1
12 |  | inactive | CCOC(=O)c1nn(-c2ccccc2)c(C#N)c1N
13 | inactive |  | O=C(NCCCN1CCN(CCCNC(=O)c2cc([N+](=O)[O-])ccc2Cl)CC1)c1cc([N+](=O)[O-])ccc1Cl
14 | inactive |  | Cc1cccc(N2C(S)=C(C#N)C(=O)NC2c2cccs2)c1 (stereo unspecified)
15 | inactive |  | COc1ccccc1Cn1nnc2c(=O)[nH]c(C3CCN(C(=O)c4ccc(C)cc4)CC3)nc21
16 | inactive |  | CCOCCOc1nc2c(c(=O)n(C)c(=O)n2C)n1CCc1ccccc1
17 | inactive |  | CCCCOC(=O)c1nc(Cl)c(Cl)c(N)c1Cl
18 | inactive |  | COc1ccc2nc(C)cc(SCC(=O)N/N=C/c3ccc(O)cc3O)c2c1
19 | inactive |  | c1coc(C2=Nc3cccc4cccc(c34)N2)c1
20 | inactive |  | NC(=O)c1c(N)sc2c1CCCCC2
21 |  | inactive | Cc1cc(C)n(CC(=O)N/N=C/c2cccc([N+](=O)[O-])c2)n1
22 | inactive |  | CC(C)(C)C1CCC(=NNC(=O)c2cc3c(s2)CCCC3)CC1 (stereo unspecified)

Row | inhibition | outcome | SMILES
23 |  | inactive | COc1ccccc1N(C)S(=O)(=O)c1ccc(C(=O)OCC(N)=O)cc1
24 |  | inactive | O=C(CCc1ccccc1)N1CCN(c2ccccn2)CC1
25 | inactive |  | CCN1CCN(c2cc(C)c3cc(NC(=S)N4CCN(c5ccc(F)cc5)CC4)ccc3n2)CC1
26 | inactive |  | C=CCSc1nc(N)c2c(C)c(C)sc2n1
27 | inactive |  | Cc1ccc2nc3c(cc(C(N)=S)c(=N)n3CCCOC(C)C)c(=O)n2c1
28 |  | inactive | Fc1ccc(C2=Nc3cccc4cccc(c34)N2)cc1
29 | inactive |  | CCOC(=O)CSC1=NC(=O)/C(=C\c2ccc(OC(C)=O)cc2)S1
30 | inactive |  | N/C(Cc1ccc(Cl)c(Cl)c1)=N\OC(=O)c1cccs1
31 |  | inactive | Cc1ccc(NC(=S)N2CCn3cccc3C2c2cccnc2)cc1 (stereo unspecified)
32 | inactive |  | Cc1cc(C)cc(-n2c(C)nc3cc(C(=O)O)ccc32)c1
33 | inactive |  | CN(Cc1ccccc1)c1nc2c(c(=O)[nH]c(=O)n2C)n1C
34 | inactive |  | CCN1CCN(c2ccc(NC(=O)c3cccc4ncccc34)cc2)CC1
35 | inactive |  | CNC(=S)N/N=C/C1=CCC2CC1C2(C)C (stereo unspecified)
36 | inactive |  | C(=C\c1ccccc1)/CSc1nnc(-c2ccccn2)n1Cc1ccco1
37 | inactive |  | Cc1nnc(NCc2n[nH]c(=O)c3ccccc23)c2ccccc12
38 | inactive |  | Cc1ccc(-c2cc(C(=O)N3CCN(c4ncccn4)CC3)c3cc(Br)ccc3n2)o1
39 | inactive |  | COc1ccc(N2C(=O)C(Cl)=C(Nc3ccccc3O)C2=O)cc1
40 | inactive |  | COc1ccc(CC(=O)Nc2ccc(-c3nc4cc(C)ccc4o3)c(O)c2)cc1OC
41 | inactive |  | CSc1nnc2ccc(-c3cccs3)nn12
42 | inactive |  | N#C/C(=C(/O)CN1CCN(c2ccccc2F)CC1)c1nc(-c2ccccc2)cs1
43 | inactive |  | N#Cc1cc(-c2ccccc2)nn1-c1ccccc1
44 | inactive |  | O=C(NCCO)c1ccc2nc(-c3ccco3)c(-c3ccco3)nc2c1

Row | inhibition | outcome | SMILES
45 |  | inactive | CCOc1cc(CNc2ccc(N3CCCCC3)cc2)cc(Br)c1OCC(=O)NC(C)(C)C
46 | inactive |  | COc1ccc(C(=O)Nc2ccc(C(=O)OCC(=O)c3cccc4ccccc34)cc2)cc1
47 | inactive |  | Cc1ccccc1-c1nc(-c2ccc(NC(=O)c3ccc4c(c3)OCO4)cc2)no1
48 |  | inactive | CCOc1ccccc1/C=N/NC(=O)CNC(=O)COc1ccccc1
49 |  | inactive | O=C(C1CCC(Cn2c(=S)[nH]c3ccccc3c2=O)CC1)N1CCN(c2ccccn2)CC1 (stereo unspecified)
50 | inactive |  | O=C(NC1=NCCS1)NC12CC3CC(CC(C3)C1)C2
51 | inactive |  | CC1Cc2ccccc2N1C(=O)c1ccc(N2CCCC2)c([N+](=O)[O-])c1 (stereo unspecified)
52 | inactive |  | COc1ccc(OCCNC(=O)c2ccccc2OCC(=O)N2CCCCC2)cc1
53 | inactive |  | O=C(COc1ccc(Br)cc1CNC1CCCCC1)NCCc1ccccc1
54 | inactive |  | COc1ccc(N=C2NC(=O)/C(=C\C=C\c3ccco3)S2)cc1
55 | inactive |  | Cn1c(N)c(C(=O)COC(=O)c2cc(-c3ccco3)nc3ccccc23)c(=O)n(Cc2ccccc2)c1=O
56 | inactive |  | Cc1ccc(NC2=C(NC(=O)c3ccccc3)C(=O)c3ccccc3C2=O)cc1Cl
57 | inactive |  | COc1ccccc1-n1c(SCC(=O)N2CCc3ccccc32)nc2c(c1=O)SCC2
58 | inactive |  | CN(C)c1ccc(/C=C2/SC(=O)N(CCN=C3NS(=O)(=O)c4ccccc43)C2=O)cc1
59 | inactive |  | COc1ccc(Cl)cc1-n1c(C)cc(C=O)c1C
60 | inactive |  | COc1ccccc1-n1c(-c2ccc(Cl)cc2)c[nH]c1=S
61 | inactive |  | CNc1ccccc(C(=O)/C=C/c2ccccc2OC)c1=O
62 | inactive |  | C=CCn1c(C)cc(-c2csc(NC)n2)c1C
63 | inactive |  | CN(CCCOc1ccccc1Br)Cc1ccccc1
64 |  | inactive | O=C(CC1NCCNC1=O)Nc1cccc([N+](=O)[O-])c1 (stereo unspecified)
65 | inactive |  | COc1ccc(N2C(=O)C(Cl)=C(Nc3c(C)n(C)n(-c4ccccc4)c3=O)C2=O)cc1
66 | inactive |  | Cc1cc(/C=C(/C#N)C(=O)Nc2ccc(Cl)cc2)c(C)n1-c1cccnc1

Row | inhibition | outcome | SMILES
67 |  | inactive | CCOC(=O)C1=C(CC)Nc2ccccc2N=C1NC(=O)c1ccc(S(=O)(=O)N2CCOCC2)cc1
68 | inactive |  | O=C(CSc1nnc(-c2ccco2)n1Cc1ccccc1)c1ccccc1
69 |  | inactive | O=C(c1ccccc1)c1ccc2nc(-c3ccco3)c(-c3ccco3)nc2c1
70 | inactive |  | O=C(CCl)Nc1cccc2ncccc12
71 | inactive |  | CNC(=O)c1sc(-c2ccccn2)nc1C
72 |  | inactive | O=C(N/N=C/c1cccc([N+](=O)[O-])c1)c1cccs1
73 | inactive |  | O=c1[nH]c(SCc2nc3ccccc3c(=O)n2-c2ccccc2C(F)(F)F)nc2ccccc12
74 | inactive |  | Cc1cc(C)nc(/N=C(\N)N2CCc3ccccc32)n1
75 | inactive |  | O=C(CSc1nnc(-c2ccccc2)c(-c2ccccc2)n1)N1CCc2ccccc21
76 | inactive |  | Cc1ccc(OCC(=O)NCc2ccccn2)c(Br)c1
77 | inactive |  | CNc1ccc(Br)cc(C(=O)/C=C/c2cc(OC)ccc2OC)c1=O
78 | inactive |  | Cc1ccc(-c2cc(-c3ccc(C)o3)nc(N)c2C#N)cc1
79 | inactive |  | CCN1CCN(c2cc(C)c3cc(NC(=S)N4CC(C)CC(C)C4)ccc3n2)CC1 (stereo unspecified)
80 | inactive |  | O=C(COC(=O)c1ccccn1)NC1CCCCC1
81 |  | inactive | OCCC1CN(Cc2ccc3ncccc3c2)CCN1Cc1ccccc1 (stereo unspecified)
82 | inactive |  | Brc1ccc2ncnc(Nc3ccc(N4CCOCC4)cc3)c2c1
83 | inactive |  | Cc1ccc(-c2cc(-c3ccccc3)c(C#N)c(N)n2)o1
84 |  | inactive | CNC(=O)CC1C(=O)N(Cc2ccccc2)C(=S)N1NC(=O)c1cccc(F)c1 (stereo unspecified)
85 | inactive |  | C/C(=C\c1ccco1)C1Nc2cccc3cccc(c23)N1
86 | inactive |  | Cc1c(N=C2C=CC(=O)c3ccccc32)c(=O)n(-c2ccccc2)n1C
87 | inactive |  | CCC(=O)N(CC)C1=C(O)c2ccccc2C(=O)C1=O
88 | inactive |  | CC1=C2C(CCS2(=O)=O)CC2(C1)C(=O)OC(C)(C)OC2=O (stereo unspecified)

Row | inhibition | outcome | SMILES
89 |  | inactive | CCOC(=O)c1cc2c(=O)n3ccccc3nc2n(Cc2ccco2)c1=NC(=O)c1ccccc1OC
90 | inactive |  | O=C(CSc1ccc(-c2ccccc2)nn1)NCc1ccco1
91 | inactive |  | COc1ccc(-n2cc(-c3ccc(OC)c(OC)c3)[nH]c2=S)cc1
92 | inactive |  | COc1cc(NC(=O)c2ccc3c(c2)OCO3)ccc1NC(=O)c1ccco1
93 | inactive |  | Cc1cc(-c2csc(N)n2)c(C)n1C
94 | inactive |  | CCN(CC)c1ccc(NC(=O)c2ccc(=O)[nH]c2)cc1S(=O)(=O)Nc1ccccc1OC
95 | inactive |  | COC(=O)CCC(=O)Nc1sc(Cc2ccccc2)c(C)c1C(N)=O
96 | inactive |  | COc1ccc(NC(=O)c2ccco2)cc1NC(=O)c1ccco1
97 | inactive |  | COc1ccc(NC(=O)c2cccs2)cc1
98 | inactive |  | Cc1cc(Cl)c(S(=O)(=O)NCC2CCCO2)cc1OCC(N)=O (stereo unspecified)
99 | inactive |  | COc1ccc2oc(-c3ccccc3)c(C(=O)N3CCOCC3)c2c1
100 | inactive |  | Cc1cc(-c2csc(N)n2)c(C)n1CCc1ccccc1
101 | inactive |  | Cc1ccc(Nc2nc(-c3ccccc3)c(CC(=O)O)s2)cc1
102 | inactive |  | NC(=O)CSc1nnc(Cn2cnc3ccccc32)o1
103 |  | inactive | Cc1ccc(C(NC(=O)C(C)C)c2cc([N+](=O)[O-])c3cccnc3c2O)cc1 (stereo unspecified)
104 | inactive |  | COC(=O)c1c(NC(=O)COc2ncnc3ccccc23)sc(C)c1C
105 | inactive |  | COc1ccc(/C=C/C(=O)Nc2sc(Cc3ccccc3)c(C)c2C(N)=O)cc1
106 | inactive |  | O=C(Cc1ccc(-c2ccccc2)cc1)NC1CCCC1
